Test results taken from ChEMBL document CHEMBL4725221, “Thiazoles, Their Benzofused Systems, and Thiazolidinone Derivatives: Versatile and Promising Tools to Combat Antibiotic Resistance” (J Med Chem, 2020).
In brackets after ≈: the same amount, converted by molar mass. Blank lines part the entries; values can stand above or below the molecule they belong to.

Experiments:
[1] = test system: Enterococcus faecalis; assay: Antibacterial activity against Enterococcus faecalis ATCC 19433 by NCCLS protocol based broth microdilution method
[2] = test system: Staphylococcus aureus; assay: Antibacterial activity against Staphylococcus aureus MTCC 3160 after 24 hrs; format: functional
[3] = test system: Bacillus subtilis; assay: Antibacterial activity against Bacillus subtilis MTCC 441 after 24 hrs; format: functional
[4] = test system: Escherichia coli; assay: Antibacterial activity against Escherichia coli MTCC 443 after 24 hrs; format: functional
[5] = test system: Staphylococcus aureus; assay: Antibacterial activity against Staphylococcus aureus ATCC 29213 by NCCLS protocol based broth microdilution method; format: functional
[6] = test system: Staphylococcus aureus; assay: Antibacterial activity against Staphylococcus aureus ATCC 29213 after 20 hrs by cup plate method; format: functional
[7] = test system: Enterococcus faecalis; assay: Antibacterial activity against Enterococcus faecalis ATCC 29212 after 20 hrs by cup plate method; format: functional
[8] = test system: Bacillus subtilis; assay: Antibacterial activity against Bacillus subtilis ATCC 10400 after 20 hrs by cup plate method; format: functional
[9] = test system: Escherichia coli; assay: Antibacterial activity against Escherichia coli ATCC 25922 after 20 hrs by cup plate method; format: functional
[10] = test system: Staphylococcus aureus; assay: Antibacterial activity against methicillin resistant Staphylococcus aureus 090 by NCCLS protocol based broth microdilution method; format: functional
[11] = test system: Staphylococcus aureus; assay: Antibacterial activity against Staphylococcus aureus ATCC 25923 by CLSI protocol based microdilution method; format: functional, organism-based
[12] = test system: Staphylococcus aureus; assay: Antibacterial activity against Staphylococcus aureus ATCC 6538 by CLSI protocol based microdilution method; format: functional, organism-based
[13] = test system: Pseudomonas aeruginosa; assay: Antibacterial activity against Pseudomonas aeruginosa ATCC 15442 by CLSI protocol based cup-plate agar diffusion method; format: functional
[14] = test system: Staphylococcus aureus; assay: Antibacterial activity against Staphylococcus aureus; format: functional
[15] = test system: Bacillus subtilis; assay: Antibacterial activity against Bacillus subtilis; format: functional
[16] = test system: Pseudomonas aeruginosa; assay: Antibacterial activity against Pseudomonas aeruginosa; format: functional
[17] = test system: Klebsiella pneumoniae; assay: Antibacterial activity against Klebsiella pneumoniae; format: functional

Compound: CCN(CC)c1ccc(C2SCC(=O)N2NC(=O)CNC(=O)c2ccccc2)cc1 (configuration not stated)
MIC [2]: 12.4 µg/mL (≈ 29 µM)
MIC [3]: 12.4 µg/mL (≈ 29 µM)
MIC [4]: 3.07 µg/mL (≈ 7.2 µM)

Compound: O=C(CNC(=O)c1ccccc1)NN1C(=O)CSC1c1ccccc1Cl (configuration not stated)
MIC [2]: 12.5 µg/mL (≈ 32.1 µM)
MIC [3]: 6.24 µg/mL (≈ 16 µM)
MIC [4]: 6.24 µg/mL (≈ 16 µM)

Compound: COc1ccc(-c2n[nH]c(N3C(=O)CS[C@H]3c3ccc(Cl)cc3)n2)cc1
MIC [6]: 8 µg/mL (≈ 20.7 µM)
MIC [7]: 16 µg/mL (≈ 41.4 µM)
MIC [8]: 16 µg/mL (≈ 41.4 µM)
MIC [9]: 16 µg/mL (≈ 41.4 µM)

Compound: Cl.Nc1ccc2sc(NC(=O)c3sc4ccccc4c3Cl)nc2c1
MIC [1]: 8 µg/mL

Compound: Cc1cccc2nc(N/N=C/c3cc(O)c(O)c(O)c3)sc12
MIC [10]: 18 µg/mL (≈ 57.1 µM)

Compound: NCCn1cc(-c2nc(-c3c[nH]c4ccccc34)cs2)c2ccccc21
IC50 [11]: 4.7 µg/mL (≈ 13.1 µM)
IC50 [12]: 9.7 µg/mL (≈ 27.1 µM)
MIC [13]: 22.7 µg/mL (≈ 63.3 µM)

Compound: COc1ccc(-c2n[nH]c(N3C(=O)CS[C@H]3c3ccc(C)cc3)n2)cc1
MIC [6]: 64 µg/mL (≈ 175 µM)
MIC [9]: 32 µg/mL (≈ 87.3 µM)

Compound: Cc1ccc(C2SCC(=O)N2NC(=O)CNC(=O)c2ccccc2)cc1 (configuration not stated)
MIC [2]: 12.6 µg/mL (≈ 34 µM)
MIC [3]: 12.6 µg/mL (≈ 34 µM)
MIC [4]: 12.6 µg/mL (≈ 34 µM)

Compound: Cl.Cl.Nc1ccc2sc(NC(=O)c3sc4cc(N)ccc4c3Cl)nc2c1
MIC [1]: 16 µg/mL

Compound: O=C(CNC(=O)c1ccccc1)NN1C(=O)CSC1c1ccc(Br)cc1 (configuration not stated)
MIC [2]: 6.51 µg/mL (≈ 15 µM)
MIC [3]: 47.8 µg/mL (≈ 110 µM)
MIC [4]: 12.2 µg/mL (≈ 28 µM)

Compound: COCCn1cc(-c2nc(-c3cn(C)c4ccccc34)cs2)c2cc(Br)ccc21
IC50 [11]: 0.95 µg/mL (≈ 2.04 µM)
IC50 [12]: 11.2 µg/mL (≈ 24 µM)
MIC [13]: 19.1 µg/mL (≈ 41 µM)

Compound: Fc1ccc(-c2csc(-n3nc(-c4ccc(F)cc4)cc3-c3cc4ccccc4[nH]3)n2)cc1
MIC [14]: 50 µg/mL (≈ 110 µM)
MIC [15]: 50 µg/mL (≈ 110 µM)
MIC [16]: 25 µg/mL (≈ 55 µM)
MIC [17]: 25 µg/mL (≈ 55 µM)

Compound: COCCn1cc(-c2nc(-c3c[nH]c4ccccc34)cs2)c2cc(Br)ccc21
IC50 [11]: 0.79 µg/mL (≈ 1.75 µM)
IC50 [12]: 9.4 µg/mL (≈ 20.8 µM)
MIC [13]: 4.4 µg/mL (≈ 9.73 µM)

Compound: O=C(Nc1nc2ccccc2s1)c1sc2cc([N+](=O)[O-])ccc2c1Cl
MIC [1]: 16 µg/mL (≈ 41 µM)

Compound: COc1ccc(-c2n[nH]c(N3C(=O)CS[C@H]3c3ccc(OC)cc3)n2)cc1
MIC [6]: 128 µg/mL (≈ 335 µM)
MIC [9]: 6 µg/mL (≈ 15.7 µM)

Compound: O=C(N[C@H](CO)[C@H](O)c1ccc([N+](=O)[O-])cc1)C(Cl)Cl [CHLORAMPHENICOL]
MIC [14]: 6.25 µg/mL (≈ 19.3 µM)
MIC [15]: 6.25 µg/mL (≈ 19.3 µM)
MIC [16]: 6.25 µg/mL (≈ 19.3 µM)
MIC [17]: 12.5 µg/mL (≈ 38.7 µM)

Compound: Cc1cccc2nc(N/N=C/c3ccc(O)cc3O)sc12
MIC [10]: 20 µg/mL (≈ 66.8 µM)

Compound: COc1ccc(/C=N/Nc2nc3cccc(C)c3s2)c(OC)c1
MIC [10]: 22 µg/mL (≈ 67.2 µM)

Compound: O=[N+]([O-])c1ccc2nc(S)sc2c1
MIC [5]: 12.5 µg/mL (≈ 58.9 µM)

Compound: O=[N+]([O-])c1ccc(-c2cc(-c3cc4ccccc4[nH]3)n(-c3nc(-c4ccc(F)cc4)cs3)n2)cc1
MIC [14]: 25 µg/mL (≈ 51.9 µM)
MIC [15]: 25 µg/mL (≈ 51.9 µM)
MIC [16]: 6.25 µg/mL (≈ 13 µM)
MIC [17]: 12.5 µg/mL (≈ 26 µM)

Results, then the molecule that gave them:

MIC [1]: 16 µg/mL
Compound: Cl.Nc1ccc2c(Cl)c(C(=O)Nc3nc4ccccc4s3)sc2c1

MIC [5]: 3.12 µg/mL (≈ 13.3 µM)
Compound: FC(F)(F)c1ccc2nc(S)sc2c1

IC50 [11]: 0.5 µg/mL (≈ 1.28 µM)
IC50 [12]: 5.2 µg/mL (≈ 13.3 µM)
MIC [13]: 3.9 µg/mL (≈ 9.99 µM)
Compound: Cn1cc(-c2csc(-c3cn(CCN)c4ccc(F)cc34)n2)c2ccccc21

MIC [1]: 8 µg/mL (≈ 22.2 µM)
Compound: Nc1ccc2c(Cl)c(C(=O)Nc3nc4ccccc4s3)sc2c1

MIC [6]: 16 µg/mL (≈ 40.3 µM)
MIC [9]: 32 µg/mL (≈ 80.5 µM)
Compound: COc1ccc(-c2n[nH]c(N3C(=O)CS[C@H]3c3ccc([N+](=O)[O-])cc3)n2)cc1

IC50 [11]: 1.5 µg/mL (≈ 3.98 µM)
IC50 [12]: 6.3 µg/mL (≈ 16.7 µM)
MIC [13]: 4.5 µg/mL (≈ 12 µM)
Compound: NCCn1cc(-c2nc(-c3c[nH]c4ccccc34)cs2)c2cc(F)ccc21

MIC [6]: 128 µg/mL (≈ 346 µM)
MIC [9]: 64 µg/mL (≈ 173 µM)
Compound: COc1ccc(-c2n[nH]c(N3C(=O)CS[C@H]3c3ccc(F)cc3)n2)cc1

IC50 [11]: 4.4 µg/mL (≈ 10.1 µM)
IC50 [12]: 3.3 µg/mL (≈ 7.55 µM)
MIC [13]: 7.8 µg/mL (≈ 17.8 µM)
Compound: NCCn1cc(-c2nc(-c3c[nH]c4ccccc34)cs2)c2cc(Br)ccc21

MIC [2]: 25.2 µg/mL (≈ 63 µM)
MIC [3]: 12.4 µg/mL (≈ 31 µM)
MIC [4]: 25.2 µg/mL (≈ 63 µM)
Compound: O=C(CNC(=O)c1ccccc1)NN1C(=O)CSC1c1cccc([N+](=O)[O-])c1 (configuration not stated)
